Results from ChEMBL document CHEMBL3832761, “MMV Pathogen Box Bioactivity Data” (2017).
pIC50: −log10 of the molar value.

How the values were obtained:
Plasmodium berghei = assay: Antimalarial activity: Liver Stage Plasmodium berghei sporozoite Luciferase assay: inhibition at 10 uM (%); format: functional
HepG2 [1] = assay: HepG2 inhibition at 10 uM (%) Cytotoxicity; format: functional; details: Homo sapiens
HepG2 [2] = assay: Cytotoxicity data HepG2 CC20 (uM); format: functional
Plasmodium falciparum [3] = assay: Antimalarial activity: Gametocytes Plasmodium falciparum NF54 Gametocytes Stage V: inhibition at 10 uM (%); format: functional
Plasmodium falciparum [4] = assay: Antimalarial activity: Asexual Blood Stage Plasmodium falciparum 3D7 IC50 (uM); format: functional, organism-based
Plasmodium falciparum [5] = assay: Antimalarial activity: Asexual Blood Stage Plasmodium falciparum Dd2 IC50 (uM); format: functional, organism-based
Plasmodium falciparum [6] = assay: Antimalarial activity: Asexual Blood Stage Plasmodium falciparum W2 IC50 (uM); format: functional, organism-based

| Structure (SMILES) | Inhibition (Plasmodium berghei) [%] | inhibition at 10 µM (HepG2 [1]) [%] | CC20 (HepG2 [2]) [µM] | Inhibition (Plasmodium falciparum [3]) [%] | pIC50 (Plasmodium falciparum [4]) | pIC50 (Plasmodium falciparum [5]) | pIC50 (Plasmodium falciparum [6]) |
| --- | --- | --- | --- | --- | --- | --- | --- |
| O=C(Nc1cnc2ccccc2c1)c1cccc(-n2cnnn2)c1 | 0 | 0 | >80 | 1 | 6.27 | 5.73 | 6.24 |
| CC(C)C(C(=O)Nc1ccc(S(=O)(=O)N(C)C)cc1)c1ccc(Cl)cc1 (stereo unspecified) | 66 | 17 | 5.35 | 31 | 6.03 | 6.19 | 6.10 |
| Cc1ccc2cc(C3NC(=O)c4ccccc4N3)c(Cl)nc2c1 (stereo unspecified) | 37 | 2 | >80 | 0 | 5.78 | 5.63 | 6.00 |
| CCOc1ccccc1C(=O)Nc1cccc(-c2nc3ncccn3c2C)c1 | 94 | 4 | – | 42.5 | 5.90 | 5.57 | 5.96 |
| CNC(=O)c1cc(S(=O)(=O)N2CCN(c3ccccn3)CC2)cs1 | 9 | 6 | >80 | 34 | 5.95 | 6.07 | 6.01 |
| CC1(C)Cc2c(c(N3CCOCC3)nc3snc(Br)c23)CO1 | 4 | 4 | – | 1 | 6.54 | 6.59 | 6.43 |
| COc1ccccc1CNC(=O)c1cc(C2CC2)nc2c1cnn2C(C)C | 39 | 5 | 11.3 | 36 | 6.03 | 5.82 | 5.69 |
| CN1CCN(S(=O)(=O)c2ccc(-c3ccc4c(Nc5ccc6nn[nH]c6c5)ccnc4c3)cc2)CC1 | 0 | 0 | >80 | 8 | 6.38 | 6.38 | 6.10 |
| Cc1cc2ccccc2n1CC(=O)N1CC(C(=O)N2CCCCC2)Oc2ccccc21 (stereo unspecified) | 1 | 10 | 21.8 | 30 | 5.97 | 6.11 | 5.98 |
| Cc1cc(Nc2ccncc2)n2nc(C)c(-c3ccccc3Cl)c2n1 | 35 | 3 | 80 | 46 | 6.20 | 6.16 | 6.31 |
| Cc1nn(C)cc1C(C)Nc1nncc(-c2ccc(C(F)(F)F)cc2)n1 (stereo unspecified) | 45 | 19 | – | 0 | 6.92 | 6.70 | 6.59 |
| COc1ccccc1C(C)NCC(=O)Nc1cc(C(F)(F)F)ccc1Cl (stereo unspecified) | 55 | 13 | 33.7 | 1 | 5.86 | 5.55 | 5.85 |
| Cc1cc(C)n(-c2ccc(NC(=O)C3CCN(Cc4cnc(C)s4)CC3)cc2)n1 | 38 | 18 | – | 0 | 6.11 | 5.61 | 5.73 |
| Cc1cc(NC(=O)c2ccc(S(=O)(=O)N(Cc3ccccc3)C(C)C)cc2)no1 | 72 | 13 | – | 12.9 | 6.01 | 5.87 | 6.16 |
| CC(C(=O)N1CCCC1)N1CCN(S(=O)(=O)c2ccc(C(C)(C)C)cc2)CC1 (stereo unspecified) | 18 | 0 | >80 | 1 | 6.05 | 5.88 | 5.66 |
| CC1CCCN(C(=O)C(C)Nc2cc(Cl)ccc2N2CCOCC2)C1 (stereo unspecified) | 46 | 13 | – | 9.53 | 6.28 | 5.88 | 6.06 |
| Nc1ncc(Br)cc1-c1nc2cc(Cl)cnc2[nH]1 | 89 | 42 | – | 0 | 5.82 | 5.65 | 5.62 |
| COc1ccc(CCN2CCC(NCc3cccc(N(C)C)c3)CC2)cc1 | 67 | 6 | – | 4.11 | 5.92 | 5.52 | 5.35 |
| Cc1cc(Cl)c(S(=O)(=O)N2CCCC2)cc1OCC(=O)NC1CCCCC1 | 81 | 32 | – | 0 | 6.52 | 6.68 | 6.80 |
| COc1cc2ncnc(NC3CCN(Cc4ccccc4)CC3)c2cc1OC | 46 | 36 | – | 3 | 6.21 | 6.01 | 5.81 |
| O=S(=O)(c1ccc(Cl)cc1)N1CCN(C(=S)NCc2ccco2)CC1 | 23 | 0 | 28.3 | 32 | 5.92 | 6.12 | 5.90 |
| O=C(c1ccc(NCCO)cc1)C1C[C@H]1c1ccc(Cl)cc1 (stereo partly specified) | 44 | 5 | 12.8 | 20 | 6.18 | 5.79 | 5.65 |
| FC(F)(F)c1cnc(Sc2nnc(-c3ccncc3)o2)c(Cl)c1 | 75 | 28 | – | 0 | 6.57 | 6.70 | 6.33 |
| Cc1ccc2[nH]c3c(NCCN(C)C)ncnc3c2c1 | 0 | 4 | – | 21 | 6.10 | 5.88 | 5.40 |
| CC(C)NCC(=O)Nc1cccc(C(=O)Nc2cccc(C(F)(F)F)c2)c1 | 47 | 0 | 11.5 | 40 | 6.46 | 5.39 | 5.65 |
| CCc1cc(=O)n(C)c(SC(C)C(=O)Nc2ccc(F)cc2)n1 (stereo unspecified) | 47 | 25 | – | 0 | 5.71 | 5.70 | 5.68 |
| Cc1noc(C)c1C(=O)N1CCCC(c2[nH]c3c(C)cccc3c2-c2ccncc2)C1 (stereo unspecified) | 52 | 0 | >80 | 42 | 6.03 | 6.13 | 6.21 |
| c1ccc2c(c1)CN(CC1CC1)CC1(CCN(Cc3c[nH]c4cnccc34)CC1)O2 | 89 | 35 | – | 8.4 | 6.21 | 5.80 | 5.61 |
| COc1ccc(C2CC(c3cccs3)=NN2C(=O)c2ccco2)cc1OC (stereo unspecified) | 26 | 15 | 43.1 | 1 | 6.52 | 6.01 | 6.07 |
| CC(C)c1ncc(-c2ccncc2)c([C@H]2CC[C@H](CNC(=O)c3cccnc3)CC2)n1 | 0 | 0 | >80 | 3 | 6.08 | 6.00 | 6.18 |
